Data: patent US11647748B2, “Sulphonamides as methionine metabolic pathway inhibitors” (MIGAL-GALILEE RESEARCH INSTITUTE LTD., priority 2018, dated 2023)
Each block holds one compound with its values, some of them ahead of it.

Key:
[1] = tested on: E. coli cells lacking the endogenic MetB CGS gene and transformed to express the CGS from Arabidopsis; assay: E. coli specificity (MOA): growth of E. coli expressing Arabidopsis CGS with and without methionine; assay type: cell-based; settings: score
Description: In addition to the direct binding evaluation, specific assay to test the compounds activity and specificity were also developed. In this assay, E. coli cells, lacking the endogenic MetB CGS gene and transformed to express the CGS from Arabidopsis, were used. These cells were grown on M9 minimal media with and without external methionine supplemented to the cells, in the presence of the compounds of the embodiments. These selected compounds of the embodiments, capable of inhibiting the cell growth on M9, but incapable of affecting the cell growth when supplemented with methionine, were validated as methionine-pathway specific inhibitors.
In this assay, Methionine auxotroph E. coli mutant was transformed with PQE-30 vector containing the Arabidopsis CGS gene as previously described in Yael Hacham et al., Plant Physiol., February 2002, 128(2): 454-462. In order to test the effect of the small molecule inhibitors on the CGS and methionine pathway, growth curves of the E. coli in M9 minimal media with 100 μM IPTG were measured with and without the addition of external methionine (40 mg/L) in the presence of variable compound concentrations. E. coli growth curves were measured by following the optical density at 600 nm of bacteria in 96 well-plate placed within Tecan M200 plate reader in orbital shaking mode at 37° C. The slope of each curve was estimated using the ‘finest’ function in Excel.

Roquette = Roquette assay spray; assay type: in vivo
Arabidopsis thaliana = assay: Arabidopsis root length (root growth inhibition); assay type: in vivo; settings: 50 μM compound; for Arabidopsis (relative to DMSO): root length ratio vs DMSO control, lower = shorter root; for Arabidopsis root length: ratio vs DMSO control, Table 4
Description: Finally, FIGS. 7a-7h are the photos of the Arabidopsis thaliana plants and the inhibition of their roots growth by the compounds of the present invention. These experiments were conducted as follows. Seeds were washed with 70% ethanol for one minute and then with sterile water. Sterilisation was performed with 50% bleaching solution (3%) and 0.2% Triton x-100 for ten minutes followed by a five-time wash with sterile water. The seeds were placed in six well-plates with half Murashige and Skoog medium (MS; Duchefa, Haarlem, Netherlands), containing 1% sucrose (w/v), pH 5.8. The plates with Arabidopsis thaliana seeds were placed at 4° C. for two days and then transferred for seven days to growth chamber (22±2° C.) at day/light cycles of 16/8 h. The plates were placed vertically. In each plate, a control including 0.1% DMSO in the medium was added. The compounds of the present invention were tested for their herbicidal efficiency by diluting 1000 times a 50 mM stock in DMSO leading to a final concentration of 50 μM with 0.1% DMSO.
In Tables 1 and 2 above, Arabidopsis root length was measured after addition of 50-μM compound compared with the negative control (DMSO) treatment. Length values indicate the ratio between non-treated plates ([…]) and the length after the addition of 50 μM of each compound. Lower values indicate shorter root length, and consequently, larger effect.

BY2 Tobacco cells = assay: BY-2 viability assay (PrestoBlue); assay type: cell-based; settings: viability relative to DMSO-treated cells, 25 μM, 48 hours; for Tobacco cells BY-2 (all (relative to DMSO)): Table 3; for Tobacco cells BY-2 results/DMSO: Table 5
Description: Reference is now made to FIG. 5 showing the BY-2 viability assay. In this assay, the viability of BY2 Tobacco cells was tested following treatment with the compounds of the present invention. For this purpose, cells were cultured in Murashige and Skoog basal medium (Sigma-Aldrich, Cat #M0404), supplemented with 2,4-dichloro-phenoxyacetic acid (0.2 mg/L), and sucrose (3%), and incubated in the dark, at 25° C. and then sub-cultured at a 1:15 dilution in fresh media every 7 days.
Before treatment, the cell suspension was adjusted to OD=0.4 (at 600 nm) and seeded in 6 well plates with a volume of 3 ml […]. The exemplified compounds were then added to the wells, at a final concentration of 25 μM (0.05% DMSO), and incubated for 48 hours. Cellular viability was measured using the commercially available PrestoBlue™ assay (ThermoFisher Scientific, PrestoBlue™ Cell Viability Reagent Cat #A13261). The PrestoBlue™ reagent is a cell-permeant non-fluorescent compound, which is reduced by metabolically active cells and providing a quantitative fluorescent signal. In the assay, 10 μL of the PrestoBlue™ reagent was added to 90 μL of the treated cells and fluorescence measurements were performed done with excitation/emission wavelengths of 560/590 nm in Tecan M200 plate reader.
Tables 1-3 and also the following Table 5 show the results of the BY-2 viability assay described above.

Tobacco CGS [2] = biological target: T1, Tobacco CGS (Nicotiana tabacum, UniProt Q9ZPL5); assay: TEV experiment (relative to DMSO); assay type: biochemical; design: 6xHIS (N, cleaved yes); GB1 solubility tag (N, cleaved yes); made in house; host or cells: E. coli BL-21
T1 sequence (Q9ZPL5 79-540): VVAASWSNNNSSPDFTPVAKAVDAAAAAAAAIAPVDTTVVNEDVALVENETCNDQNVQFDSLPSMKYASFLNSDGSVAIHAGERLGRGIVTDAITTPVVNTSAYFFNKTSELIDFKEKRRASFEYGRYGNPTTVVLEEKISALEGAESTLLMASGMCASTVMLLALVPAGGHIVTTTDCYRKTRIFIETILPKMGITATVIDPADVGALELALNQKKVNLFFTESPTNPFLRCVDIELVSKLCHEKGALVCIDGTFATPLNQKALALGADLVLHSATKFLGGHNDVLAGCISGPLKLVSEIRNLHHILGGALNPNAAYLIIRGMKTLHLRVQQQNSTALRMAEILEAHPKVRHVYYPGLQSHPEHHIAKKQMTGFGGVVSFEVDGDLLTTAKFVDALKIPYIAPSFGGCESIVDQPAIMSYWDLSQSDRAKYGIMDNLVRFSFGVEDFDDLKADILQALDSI
Description: As discussed above, the first reaction in methionine biosynthesis in plants is catalyzed by the CGS enzyme. In this reaction, the formation of cystathionine is conducted by the γ-replacement of the phosphoryl substituent of O-phospho-homoserine by cysteine and consecutive release of an orthophosphate group.
Expression of recombinant CGS was done by transforming the pET-11 vector containing the DNA sequence of Tobacco CGS with a 6×HIS tag and GB1 solubility tag followed by TEV cleavage site into BL-21 cells. These cells were cultured at 37° C. and optical density (OD)=0.8 protein at 600 nm, and the expression was induced by addition of 1 mM IPTG for 16 hours at 25° C. The protein was purified to homogeneity onto nickel column and cleaved by o/n dialysis with the TEV protease. A second nickel column was used to separate the cleaved CGS from the TEV and GB1 solubility tag.
The direct activity of CGS was tested using the Malachite Green Phosphate Assay Kit (Sigma-Aldrich, cat #MAK307-1KT). It is a highly sensitive and robust experiment used to measure the release of free orthophosphate group based on quantification of the green-coloured complex formed between Malachite Green, molybdate, and free orthophosphate. The rapid colour formation from the reaction can be conveniently measured on a spectrophotometer via the absorbance at 620 nm.
The assay mixture (100 μl) contained 50 mM MOPS-NaOH (pH 7.5), 150 mM NaCl, 0.1 mM PLP and 1 μM purified CGS. The compounds of the present invention were added at a final concentration of 50 μM and reactions were initiated by adding 2 mM cysteine and 3 mM 0-phospho-L-homo-serine. After two-hour incubation at 25° C., 80 μL of each sample were transferred into a new 96 well-plate containing 20 μl of Malachite Green Reagent and incubated for additional 30 min at 25° C. Colour development was measured by a plate reader Tecan M200 (620 nm).

Tobacco CGS [3] = biological target: T1, Tobacco CGS; assay: Micro Scale Thermophoresis (MST) direct binding to CGS; design: 6xHIS (N, cleaved yes); GB1 solubility tag (N, cleaved yes); made in house; host or cells: E. coli BL21; settings: score on scale 0-5; Table 3
Description: The direct binding of the compounds of the embodiments to the CGS was tested by Micro Scale Thermophoresis (MST). In the MST assay, the CGS protein was labelled with a fluorophore, the samples were heated, and changes in fluorescence were measured as a function of the ligand concentration. In the MST assay, similar to the expression and purification described above, the recombinant Tobacco CGS protein was expressed in E. coli BL21 cells and purified to homogeneity. For that particular purpose, the pET-11 vector containing the DNA sequence of Tobacco CGS with an N-terminus 6×HIS tag followed by a TEV-cleavable GB1 solubility tag was cloned and transformed into the bacteria cells. Cells were cultured to OD=0.8, and protein expression was induced by the addition of 1 mM IPTG. The cells were cultured for additional 16 hours temperature 25° C.
Following cellular lysis, the soluble fraction was passed through the nickel column and the bound HIS-tagged protein was eluted by 300 mM imidazole. […]
Thus, the MST assay was performed to measure the biding of the compounds to the CGS protein. […] The MST binding curves were then measured using the Monolith NT.115 apparatus by incubating the labelled protein with the indicated compounds in a dose-response manner.

SMILES: O=C(O)CC1CN(S(=O)(=O)/C=C/c2ccc(Cl)cc2)c2ccccc21 (stereo not shown)
- E. coli specificity (MOA) ([1]; Table 1): 2
- Roquette assay spray (twice average) (Roquette; Table 1): 3.0
- Arabidopsis (relative to DMSO) (Arabidopsis thaliana; Table 1): 0.04
- Tobacco cells BY-2 (relative DMSO) (BY2 Tobacco cells; Table 1): 12

SMILES: Cc1nc(-c2ccc(C)c(S(=O)(=O)Nc3cccc(C(=O)O)c3)c2)cs1 [IML-193]
- Arabidopsis root length (Arabidopsis thaliana): 0.50

SMILES: O=C(O)CC1CN(S(=O)(=O)/C=C/c2ccccc2)c2ccccc21 (stereo not shown)
- E. coli specificity (MOA) ([1]; Table 1): 5
- Roquette assay spray (twice average) (Roquette; Table 1): 2.5
- Arabidopsis (relative to DMSO) (Arabidopsis thaliana; Table 1): 0.08
- TEV (relative to DMSO) (Tobacco CGS [2]; Table 1): 0.25
- Tobacco cells BY-2 (relative DMSO) (BY2 Tobacco cells; Table 1): 21

- TEV (relative to DMSO) (Tobacco CGS [2]; Table 2): 0.13
SMILES: O=C(O)C1Cc2ccccc2N1S(=O)(=O)C1Cc2ccccc2C1 (stereo not shown)

- TEV (relative to DMSO) (Tobacco CGS [2]; Table 1): 0.22
SMILES: COc1cccc2c1[C@@H](C(=O)O)CN2S(=O)(=O)/C=C/c1cccc(Cl)c1
- Arabidopsis (relative to DMSO) (Arabidopsis thaliana; Table 1): 0.01
- Tobacco cells BY-2 (relative DMSO) (BY2 Tobacco cells; Table 1): 7

SMILES: O=C(O)C1CN(S(=O)(=O)/C=C/c2ccc(Cl)cc2)c2ccccc21 (stereo not shown)
- Roquette assay spray (twice average) (Roquette; Table 1): 3.0
- Arabidopsis (relative to DMSO) (Arabidopsis thaliana; Table 1): 0.04
- TEV (relative to DMSO) (Tobacco CGS [2]; Table 1): 0.39
- Tobacco cells BY-2 (relative DMSO) (BY2 Tobacco cells; Table 1): 21

SMILES: COc1cccc2c1CC(C(=O)O)N2S(=O)(=O)/C=C/c1ccccc1Cl (stereo not shown)
- Roquette assay spray (twice average) (Roquette; Table 1): 2.0
- Arabidopsis (relative to DMSO) (Arabidopsis thaliana; Table 1): 0.24
- Tobacco cells BY-2 (relative DMSO) (BY2 Tobacco cells; Table 1): 17

- MST Tobacco (0-5) (Tobacco CGS [3]): 5
SMILES: O=S(=O)(Cc1ccccc1F)Nc1ccc2nncn2c1
- Tobacco cells BY-2 (all (relative to DMSO)) (BY2 Tobacco cells): 0

SMILES: COc1cccc(S(=O)(=O)Nc2cccc(-c3cn(Cc4ccccc4)nn3)c2)c1 [IML-226]
- Tobacco cells BY-2 results/DMSO (BY2 Tobacco cells): 60

SMILES: CCc1nc(-c2cccc(NS(=O)(=O)c3cccc(OC)c3)c2)no1 [IML-227]
- Arabidopsis root length (Arabidopsis thaliana): 0.36
- Tobacco cells BY-2 results/DMSO (BY2 Tobacco cells): 33

SMILES: O=C(O)C1Cc2ccccc2N1S(=O)(=O)c1ccc2ccccc2c1 (stereo not shown)
- Roquette assay spray (twice average) (Roquette; Table 2): 2.5
- Arabidopsis (relative to DMSO) (Arabidopsis thaliana; Table 2): 0.20
- TEV (relative to DMSO) (Tobacco CGS [2]; Table 2): 0.09
- Tobacco cells BY-2 (relative DMSO) (BY2 Tobacco cells; Table 2): 30

SMILES: O=C(O)C1Cc2ccccc2CN1S(=O)(=O)/C=C/c1ccccc1 (stereo not shown)
- E. coli specificity (MOA) ([1]; Table 1): 4
- Arabidopsis (relative to DMSO) (Arabidopsis thaliana; Table 1): 0.20
- Tobacco cells BY-2 (relative DMSO) (BY2 Tobacco cells; Table 1): 46

SMILES: Cc1ccccc1CS(=O)(=O)Nc1ccc2nncn2c1
- E. coli specificity (MOA) ([1]; Table 3): 5
- Tobacco cells BY-2 (all (relative to DMSO)) (BY2 Tobacco cells): 0

- TEV-relative to DMSO (Tobacco CGS [2]; Table 6): 0.71
SMILES: Cc1nc(-c2cccc(S(=O)(=O)Nc3cccc(C(=O)O)c3)c2)cs1 [IML-198]
- Arabidopsis root length (Arabidopsis thaliana): 0.31
